Reference: patent publication US5599974A, “Aldehydic agents for allosteric modification of hemoglobin” (Center for Innovative Technology, priority 1994, dated 1997)

How the values were obtained:
whole blood = test: Whole-blood studies: effect on the oxygen affinity of whole blood; format: cell-based
human hemoglobin (HbA) = target: T1, human hemoglobin (HbA) (Homo sapiens, UniProt P69905); test: Oxygen equilibrium studies of hemoglobin solutions (Hem-O-Scan oxygen dissociation curves); format: biochemical; conditions: hemoglobin solution
T1 construct: hemoglobin solution
Text: In blood, hemoglobin is in equilibrium between two allosteric structures. In the "T" (for tense) state, hemoglobin is de-oxygenated. In the "R" (for relaxed) state, hemoglobin is oxygenated. An oxygen equilibrium curve can be scanned using well known equipment such as the Aminco™ Hem-o-scan to evaluate the affinity and degree of cooperativity (allosteric action) of hemoglobin. In the scan, the Y-axis plots the percent of hemoglobin oxygenation and the X-axis plots the partial pressure of oxygen in millimeters of mercury (mm Hg). If a horizontal line is drawn from the 50% oxygen saturation point to the scanned curve and a vertical line is drawn from the intersection point of the horizontal line with the curve to the partial pressure X-axis, a value commonly known as the P50 is determined. This is the pressure when the hemoglobin is 50% saturated with oxygen. By comparing the P50 value for treated hemoglobin to the P50 value for untreated normal adult human hemoglobin (HbA) under physiological conditions (i.e., 37° C., pH=7.4, and partial carbon dioxide pressure of 40 mm Hg), the degree of allosteric modification can be determined. When the P50 value for treated hemoglobin is lower than for HbA, a high oxygen affinity hemoglobin is indicated and the curve is said to be "left-shifted". Conversely, when the P50 value for treated hemoglobin is higher than for HbA, a low oxygen affinity hemoglobin is indicated and the curve is said to be "right-shifted".
In the oxygen equilibrium studies, the HbA was further purified by dialysis against pH 8.6. Tris buffer (50 mM, containing 40 mg EDTA/L) to remove any residual A2 hemoglobin. The pure HbA fraction was concentrated by using a Schleicher and Schuell colloidion bag apparatus, available from Schleicher and Schuell, Inc., with HEPES buffer (50 mM, pH 7.4) as the exchange buffer. The Hb concentration was determined by using the cyanmet method. The Hb concentration at this point was usually found to be around 35 g% (approximately 5.4 mM). Less than 5% methemoglobin was noted even after several days at 4° C. Oxygen dissociation curves were recorded on an AMINCO Hem-0-Scan oxygen dissociation analyzer available from Travenol Laboratories.
All compounds were dissolved in 50 mM HEPES buffer, pH 7.4, to give 20 mM of drug solution. The Hb (5.4 mM, in HEPES, pH 7.4) and the test compounds (20 mM) were mixed in 1:1 volume ratio (50μL of Hb+50μL of compound solution) to give final concentrations of 2.7 mM and 10mM, respectively (a molar ratio of test compound to hemoglobin of approximately 4:1). A control experiment was prepared by the addition of 50 μL of Hb to 50 μL of HEPES buffer. The mixtures were incubated at 4° C. for two hours before running the oxygen dissociation curves.

HbA = target: T2, HbA (Homo sapiens, UniProt P69905); test: X-ray diffraction analysis of HbA/drug complexes (difference electron-density maps); format: binding; conditions: HbA tetramer/drug molar ratio 1:5 (TB17 1:10), Schiff base reduced, deoxygenated crystals
T2 construct: co-crystals with compounds
Procedure: Reaction of the drug compounds with HbA, crystallization and X-ray data collection of the HbA/drug complexes were performed according to the procedures of Wireko et al., Proc. Natl. Acad. Sci. USA, 1991, 88, 2209, which is herein incorporated by reference, with some slight modifications. Freshly prepared solutions of the synthesized compounds in potassium phosphate buffer were incubated at oxy HbA tetramer/drug molar ratios of 1:5 or 1:10 for at least 24 hours. Sodium cyanoborohydrie in phosphate buffer was added in 10- to 50-fold molar excess of HbA tetramer to reduce the Schiff's base adduct for at least 24 hours. The deoxygenated HbA/compound complexes were set up for crystallizations following the procedures described in Perutz et al., Crys. Growth, 1968, 2, 54, which is herein incorporated by reference, with some slight modifications. X-ray quality crystals for all complexes were obtained after three to seven days. Crystals of TB19 (discussed below) grown with HbA incubated and reduced under deoxygenated conditions was also used for data collection.
X-ray diffraction data for the MS2 complex (discussed below) was collected using a Rigaku AFC5R rotating anode diffractometer to a resolution of 4Å. All hk±1 reflections and their Friedel pairs were collected. One crystal, dimensions 0.3 to 1.2 mm was used for collection. Diffraction data for the rest of the complexes were collected with a Rigaku AFC5R rotating anode diffractometer equipped with an R-axis IIC image plate system, all to a resolution of 1.94A. Crystals of linear dimensions 0.2 to 0.5 mm were used. Data reduction, structure solution and calculation of Fourier difference electron-density maps were as described in Wireko et al., Proc. Natl. Acad. Sci. USA, 1991, 88, 2209.
Models of the compounds created with MMOD and minimized with MM2 force field were fitted to the electron-density by using FRODO on an EVANS and SUTHERLAND PS390 graphic station.
X-ray diffraction analyses were used to study several of the new drug complexes including MS1, MS2, TB8, TB10, TB17, TB19, TB32, TB36, TB62, and TB63. The difference electron-density maps of all complexes discussed are that of the HbA tetramer/drug molar ratio of 1:5, except TB17 which is 1:10. All drug molecules contain at least two functionalities, an aldehyde and a carboxylate, common to all of them. […] The only exception was MS2 where only one of the carboxylate oxygens was involved in the salt bridge interaction. The above binding site, which is common to all of the complexes, will be referred to as the α-cleft binding site. Some of the above drug compounds have additional functional groups which are also involved in additional interaction with other HbA residues, including hydrogen bonding, van der Waals interaction, and a second covalent bonding.
All complexes have two molecules of the drug compounds bound at the above-mentioned α-cleft site and are related by the two fold noncrystallographic axis. These sites are further noted as the α1-cleft site (Val-1α1 binding site), and the α2-cleft site (Val-1α2 binding site). In all complexes, the electron density at the α2-cleft site were slightly bigger and better defined than the electron density at the α1-cleft site. In addition to the binding at the α-cleft site, some of the drug compounds also bind to other secondary sites, including other sites in the α-cleft water cavity, the β-cleft water cavity located at Val-1β, and the Hb polymer contact site located near the residues His-116β and His-117β.

- direction of shift of the oxygen equilibrium curve (human hemoglobin (HbA)): right shift
- P50 D (aver.) (human hemoglobin (HbA); Hb 2.7 mM, compound 10 mM (approx. 4:1), 50 mM HEPES pH 7.4, incubated at 4° C. for two hours): 42.0 mm Hg
- ΔP50 (P50 D - P50 C) (human hemoglobin (HbA); Hb 2.7 mM, compound 10 mM, 50 mM HEPES pH 7.4, positive = right shift): 20.0 mm Hg
Structure (SMILES): O=Cc1ccc(OCCCCOc2ccc(C=O)cc2C(=O)O)c(C(=O)O)c1 [TB19, 1,4-Bis(2-carboxy-4-formylphenoxy)-butane]
- P50 D (aver.) (whole blood; heparinized whole blood mixed 1:1 with test compound solution, equilibrated 1 hour at 37° C., P50 C 25.0): 19.5 mm Hg
- direction of shift of the oxygen equilibrium curve (whole blood; whole blood): left shift
- ΔP50 D (whole blood; whole blood, 1 hour at 37° C., P50 D - P50 C): -5.5 mm Hg
- binding sites in HbA seen in the difference electron-density map (HbA): binding exclusively at the two symmetry-relatedα-cleft sites
